{"source": "BindingDB's records for doi:10.1016/j.bmcl.2009.05.120", "about": "(Royal College of Surgeons In Ireland, 2009)", "experiment": "Inhibition of PGHS-1 in human platelet rich plasma assessed as inhibition of arachidonic acid-induced platelet aggregation in human platelet rich plasma treated 5 min before arachidonic acid challenge by turbidimetry", "note": "pIC50: −log10 of the molar value."}
{"smiles": "COC(=O)CCCCc1cccc(C(=O)OC)c1OC(C)=O", "note": "[methyl 2-acetoxy-3-(5-methoxy-5-oxopentyl)benzoate]", "values": [{"measurement": "pIC50", "result": 3.14}]}
